From ChEMBL document CHEMBL5096221, “Discovery of a Highly Potent and Orally Bioavailable STAT3 Dual Phosphorylation Inhibitor for Pancreatic Cancer Treatment” (J Med Chem, 2022)

Experiments:
[1] = target: Signal transducer and activator of transcription 3 (Homo sapiens, UniProt P40763); assay: Inhibition of STAT3 in human HEK293T cells assessed as inhibition of IL-6 stimulated STAT3 phosphorylation by dual-luciferase reporter assay; type: cell-based
[2] = Inhibition of ATP production in human BXPC-3 cells incubated for 20 to 24 hrs by ATP assay kit method; type: functional, cell-based
[3] = system: BXPC-3; assay: Anti-proliferative activity against human BXPC-3 cells assessed as cell growth inhibition incubated for 72 hrs by MTS assay; type: functional, cell-based; details: BXPC-3, 72 h
[4] = system: Capan-2; assay: Anti-proliferative activity against human Capan-2 cells assessed as cell growth inhibition incubated for 72 hrs by MTS assay; type: functional, cell-based; details: Capan-2, 72 h

Sequence of Signal transducer and activator of transcription 3 (P40763 whole entry): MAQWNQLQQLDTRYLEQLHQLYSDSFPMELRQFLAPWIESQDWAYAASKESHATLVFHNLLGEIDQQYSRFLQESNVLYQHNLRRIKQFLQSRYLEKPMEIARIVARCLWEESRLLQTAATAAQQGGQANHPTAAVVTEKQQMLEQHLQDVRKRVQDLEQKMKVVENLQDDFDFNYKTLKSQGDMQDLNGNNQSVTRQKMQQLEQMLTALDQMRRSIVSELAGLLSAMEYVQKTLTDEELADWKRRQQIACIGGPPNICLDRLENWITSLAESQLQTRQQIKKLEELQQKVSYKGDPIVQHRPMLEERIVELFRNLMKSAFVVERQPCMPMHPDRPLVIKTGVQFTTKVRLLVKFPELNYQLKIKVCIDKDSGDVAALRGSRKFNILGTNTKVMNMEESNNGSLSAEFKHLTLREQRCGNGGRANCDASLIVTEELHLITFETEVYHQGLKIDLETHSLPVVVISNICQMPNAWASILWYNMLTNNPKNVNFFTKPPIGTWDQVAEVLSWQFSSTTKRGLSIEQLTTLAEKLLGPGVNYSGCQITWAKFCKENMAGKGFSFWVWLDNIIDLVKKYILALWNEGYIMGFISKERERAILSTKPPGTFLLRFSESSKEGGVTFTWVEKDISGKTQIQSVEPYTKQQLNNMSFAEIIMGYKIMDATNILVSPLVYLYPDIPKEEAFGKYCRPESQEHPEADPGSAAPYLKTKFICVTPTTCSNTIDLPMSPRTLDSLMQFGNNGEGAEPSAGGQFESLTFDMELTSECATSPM

| Compound | IC50 [1] [nM] | IC50 [2] [nM] | IC50 [3] [nM] | IC50 [4] [nM] |
| --- | --- | --- | --- | --- |
| Cn1c(C(=O)N2CCN(Cc3ccc(OCC(F)(F)F)cc3)CC2)cc2ccc(Oc3cnc(-c4nc(-c5ccc(C(F)(F)F)cc5)no4)cn3)cc21 | 22.3 | 32.5 | 3.3 | 8.6 |
| Cn1c(C(=O)N2CCN(Cc3ccc(OCC(F)(F)F)cc3)CC2)cc2ccc(Oc3cnc(-c4nc(-c5ccccc5)no4)cn3)cc21 | 217 |  |  |  |
| Cn1c(C(=O)N2CCN(Cc3cccc(OCC(F)(F)F)c3)CC2)cc2ccc(Oc3cnc(-c4nc(-c5ccc(C(F)(F)F)cc5)no4)cn3)cc21 | > 1000 |  |  |  |
| Cn1c(C(=O)N2CCN(Cc3cccc(C(F)(F)F)c3)CC2)cc2ccc(Oc3cnc(-c4nc(-c5ccc(C(F)(F)F)cc5)no4)cn3)cc21 | > 1000 |  |  |  |
| Cn1c(C(=O)N2CCN(Cc3ccc(Br)cc3)CC2)cc2ccc(Oc3cnc(-c4nc(-c5ccc(C(F)(F)F)cc5)no4)cn3)cc21 | 836 |  |  |  |
| O=C(c1cc2ccc(Oc3cnc(-c4nc(-c5ccc(C(F)(F)F)cc5)no4)cn3)cc2n1Cc1ccccc1)N1CCN(Cc2ccc(OCC(F)(F)F)cc2)CC1 | > 1000 |  |  |  |
| COc1cccc(-c2noc(-c3cnc(Oc4ccc5cc(C(=O)N6CCN(Cc7ccc(OCC(F)(F)F)cc7)CC6)n(C)c5c4)cn3)n2)c1 | 19.8 | 12.6 | 1.5 | 6.5 |
| Cn1c(C(=O)N2CCN(Cc3ccc(OCC(F)(F)F)cc3)CC2)cc2ccc(Oc3cnc(-c4nc(-c5ccc(Br)cc5)no4)cn3)cc21 | 28.1 | 14.3 | 2.7 | 9.3 |
| Cn1c(C(=O)N2CCN(C(=O)c3ccc(OCC(F)(F)F)cc3)CC2)cc2ccc(Oc3cnc(-c4nc(-c5ccc(C(F)(F)F)cc5)no4)cn3)cc21 | > 1000 |  |  |  |
| COc1ccccc1-c1noc(-c2cnc(Oc3ccc4cc(C(=O)N5CCN(Cc6ccc(OCC(F)(F)F)cc6)CC5)n(C)c4c3)cn2)n1 | 45.5 | 56.5 | 1.3 | 8.6 |
| COCCn1c(C(=O)N2CCN(Cc3ccc(OCC(F)(F)F)cc3)CC2)cc2ccc(Oc3cnc(-c4nc(-c5ccc(C(F)(F)F)cc5)no4)cn3)cc21 | 39.9 | 93.2 |  |  |
| CCOC(=O)Cn1c(C(=O)N2CCN(Cc3ccc(OCC(F)(F)F)cc3)CC2)cc2ccc(Oc3cnc(-c4nc(-c5ccc(C(F)(F)F)cc5)no4)cn3)cc21 | > 1000 |  |  |  |
| CN1CCN(C(=O)c2cc3ccc(Oc4cnc(-c5nc(-c6ccc(C(F)(F)F)cc6)no5)cn4)cc3n2C)CC1 | > 1000 |  |  |  |
| Cn1c(C(=O)N2CCN(Cc3ccc(OCC(F)(F)F)cc3)CC2)cc2ccc(Oc3cnc(-c4nc(-c5ccc(OC(F)(F)F)cc5)no4)cn3)cc21 | 39.2 | 10.5 | 11.4 | 6.4 |
| C=CCn1c(C(=O)N2CCN(Cc3ccc(OCC(F)(F)F)cc3)CC2)cc2ccc(Oc3cnc(-c4nc(-c5ccc(C(F)(F)F)cc5)no4)cn3)cc21 | > 1000 |  |  |  |
| CC(C)C(=O)n1c(C(=O)N2CCN(Cc3ccc(OCC(F)(F)F)cc3)CC2)cc2ccc(Oc3cnc(-c4nc(-c5ccc(C(F)(F)F)cc5)no4)cn3)cc21 | 337 |  |  |  |
| COc1ccc(CN2CCN(C(=O)c3cc4ccc(Oc5cnc(-c6nc(-c7ccc(C(F)(F)F)cc7)no6)cn5)cc4n3C)CC2)cc1 | 63.6 |  |  |  |
| Cn1c(C(=O)N2CCN(Cc3ccc(C(F)(F)F)cc3)CC2)cc2ccc(Oc3cnc(-c4nc(-c5ccc(C(F)(F)F)cc5)no4)cn3)cc21 | 72.4 | 102 |  |  |
| CCCN1CCN(C(=O)c2cc3ccc(Oc4cnc(-c5nc(-c6ccc(C(F)(F)F)cc6)no5)cn4)cc3n2C)CC1 | 800 |  |  |  |
| Cn1c(C(=O)N2CCN(Cc3ccccc3OCC(F)(F)F)CC2)cc2ccc(Oc3cnc(-c4nc(-c5ccc(C(F)(F)F)cc5)no4)cn3)cc21 | > 1000 |  |  |  |
| Cn1c(C(=O)N2CCN(Cc3ccc(OCC(F)(F)F)cc3)CC2)cc2ccc(Oc3cnc(-c4nc(-c5ccc(Cl)cc5)no4)cn3)cc21 | 35.7 | 25.8 | 4.8 | 12.6 |
| Cn1c(C(=O)N2CCN(Cc3ccc(Cl)cc3)CC2)cc2ccc(Oc3cnc(-c4nc(-c5ccc(C(F)(F)F)cc5)no4)cn3)cc21 | 649 |  |  |  |
| COc1ccc(CN2CCN(C(=O)c3cc4ccc(Oc5cnc(-c6nc(-c7ccc(C(F)(F)F)cc7)no6)cn5)cc4n3C)CC2)cc1F | 134 |  |  |  |
| Cc1ccc(CN2CCN(C(=O)c3cc4ccc(Oc5cnc(-c6nc(-c7ccc(C(F)(F)F)cc7)no6)cn5)cc4n3C)CC2)cc1 | 492 |  |  |  |
| O=C(c1cc2ccc(Oc3cnc(-c4nc(-c5ccc(C(F)(F)F)cc5)no4)cn3)cc2[nH]1)N1CCN(Cc2ccc(OCC(F)(F)F)cc2)CC1 | 30.5 | 25 |  |  |

Second part, led by results:

| IC50 [1] [nM] | IC50 [2] [nM] | IC50 [3] [nM] | Compound | IC50 [4] [nM] |
| --- | --- | --- | --- | --- |
| 167 |  |  | CCn1c(C(=O)N2CCN(Cc3ccc(OCC(F)(F)F)cc3)CC2)cc2ccc(Oc3cnc(-c4nc(-c5ccc(C(F)(F)F)cc5)no4)cn3)cc21 |  |
| 101 | 117 |  | Cn1c(C(=O)N2CCN(Cc3ccc(OCC(F)(F)F)c(F)c3)CC2)cc2ccc(Oc3cnc(-c4nc(-c5ccc(C(F)(F)F)cc5)no4)cn3)cc21 |  |
| 76.1 |  |  | Cn1c(C(=O)N2CCN(Cc3ccc(OC(F)(F)F)cc3)CC2)cc2ccc(Oc3cnc(-c4nc(-c5ccc(C(F)(F)F)cc5)no4)cn3)cc21 |  |
| 427 |  |  | Cn1c(C(=O)N2CCN(Cc3ccc(F)cc3)CC2)cc2ccc(Oc3cnc(-c4nc(-c5ccc(C(F)(F)F)cc5)no4)cn3)cc21 |  |
| > 1000 |  |  | Cn1c(C(=O)N2CCN(C(=O)c3ccc(C(F)(F)F)cc3)CC2)cc2ccc(Oc3cnc(-c4nc(-c5ccc(C(F)(F)F)cc5)no4)cn3)cc21 |  |
| 1110 | 1.6 | 1.9 | CCN1CCN(C(=O)c2cc3ccc(Oc4cnc(-c5nc(-c6ccc(C(F)(F)F)cc6)no5)cn4)cc3n2C)CC1 | 1 |
| > 1000 |  |  | Cc1cccc(CN2CCN(C(=O)c3cc4ccc(Oc5cnc(-c6nc(-c7ccc(C(F)(F)F)cc7)no6)cn5)cc4n3C)CC2)c1 |  |
| > 1000 |  |  | COC(=O)Cn1c(C(=O)N2CCN(Cc3ccc(OCC(F)(F)F)cc3)CC2)cc2ccc(Oc3cnc(-c4nc(-c5ccc(C(F)(F)F)cc5)no4)cn3)cc21 |  |
| 38.3 | 19.9 | 1.9 | Cn1c(C(=O)N2CCN(Cc3ccc(OCC(F)(F)F)cc3)CC2)cc2ccc(Oc3cnc(-c4nc(-c5cccc(F)c5)no4)cn3)cc21 | 5 |
| 13.1 | 16.5 | 1.7 | Cn1c(C(=O)N2CCN(Cc3ccc(OCC(F)(F)F)cc3)CC2)cc2ccc(Oc3cnc(-c4nc(-c5ccccc5F)no4)cn3)cc21 | 7.7 |
| > 1000 |  |  | Cn1c(C(=O)N2CCN(C(=O)CCl)CC2)cc2ccc(Oc3cnc(-c4nc(-c5ccc(C(F)(F)F)cc5)no4)cn3)cc21 |  |
| 595 |  |  | Cn1c(C(=O)N2CCN(CCc3ccccc3)CC2)cc2ccc(Oc3cnc(-c4nc(-c5ccc(C(F)(F)F)cc5)no4)cn3)cc21 |  |
| > 1000 |  |  | COC(=O)CN1CCN(C(=O)c2cc3ccc(Oc4cnc(-c5nc(-c6ccc(C(F)(F)F)cc6)no5)cn4)cc3n2C)CC1 |  |
| 613 |  |  | CCCn1c(C(=O)N2CCN(Cc3ccc(OCC(F)(F)F)cc3)CC2)cc2ccc(Oc3cnc(-c4nc(-c5ccc(C(F)(F)F)cc5)no4)cn3)cc21 |  |
